Results taken from patent publication US9422240B2, “Partially saturated nitrogen-containing heterocyclic compound” (TAISHO PHARMACEUTICAL CO., LTD, priority 2012, dated 2016).

Key:
human PHD2 [1] = biological target: T1, human PHD2 (Homo sapiens (Human), UniProt Q9GZT9); assay: Test 1: human PHD2 inhibitory activity, [14C]-2-oxoglutarate to [14C]-succinic acid radiometric assay with HIF-1α peptide; format: biochemical; conditions: test compound's concentration 1 μM; Test 1, [14C]-2-oxoglutarate radiometric assay; read-out: Percent inhibition (% at 1 μM)
T1 sequence (Q9GZT9 whole entry): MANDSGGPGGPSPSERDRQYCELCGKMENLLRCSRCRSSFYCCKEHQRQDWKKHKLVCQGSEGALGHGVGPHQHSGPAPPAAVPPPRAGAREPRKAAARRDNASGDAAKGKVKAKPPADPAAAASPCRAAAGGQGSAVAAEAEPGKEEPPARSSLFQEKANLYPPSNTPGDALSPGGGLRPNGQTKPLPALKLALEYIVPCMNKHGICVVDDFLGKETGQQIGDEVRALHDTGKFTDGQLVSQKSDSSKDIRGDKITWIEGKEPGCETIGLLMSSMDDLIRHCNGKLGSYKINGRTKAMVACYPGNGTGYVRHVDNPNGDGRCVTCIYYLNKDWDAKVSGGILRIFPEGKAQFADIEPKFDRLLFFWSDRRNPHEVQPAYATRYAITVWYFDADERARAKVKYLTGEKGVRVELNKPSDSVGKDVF
In short: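 Lysate from HighFive insect cells expressing human PHD2 (4 μg/well) was incubated for 15 min at 37° C with a 19-residue HIF-1α peptide and [14C]-2-oxoglutarate. Unreacted 2-oxoglutarate was precipitated with DNPH and filtered off, and [14C]-succinic acid was counted. Inhibition was calculated relative to substrate-free and compound-free controls.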

human PHD2 [2] = biological target: T1, human PHD2; assay: Test 2: human PHD2 inhibitory activity, fluorescence polarization assay of HIF-1α peptide proline hydroxylation; format: biochemical; conditions: test compound's concentration 1 μM; Test 2, fluorescence polarization assay; read-out: Percent inhibition (% at 1 μM)
In short: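 Enzyme from lysate of cells expressing human PHD2 (NM_022051), 40 ng/well, added to compound and 19-residue HIF-1α peptide substrate; 20 min at 30° C., EDTA quench. Prolyl hydroxylation detected by HIF-OH antibody binding via fluorescence polarization; inhibition relative to compound-free wells.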

| Compound | inhibition at 1 µM (human PHD2 [1]) [%] | inhibition at 1 µM (human PHD2 [2]) [%] |
| --- | --- | --- |
| O=C(O)CNC(=O)C1=C(O)CCN(CCc2cccc(C(F)(F)F)c2)C1=O [Ex. 1-173] | 64 | 78 |
| CC1(C)CN(Cc2ccc(C(F)(F)F)cc2)C(=O)C(C(=O)NCC(=O)O)=C1O [Ex. 1-174] | 59 | 74 |
| CC1(C)C(O)=C(C(=O)NCC(=O)O)C(=O)N(Cc2ccc(C(F)(F)F)cc2)C1(C)C [Ex. 1-175] | 32 | 56 |
| O=C(O)CNC(=O)C1=C(O)CCN(CCc2ccc(C(F)(F)F)cc2)C1=O [Ex. 1-176] | 74 | 80 |
| CC1CC(O)=C(C(=O)NCC(=O)O)C(=O)N1Cc1ccc(-c2ccc(F)cc2)cc1 (centres unmarked) [Ex. 1-177] | 93 | 92 |
| O=C(O)CNC(=O)C1=C(O)CC2(CCC2)N(Cc2ccc(-c3ccc(F)cc3)cc2)C1=O [Ex. 1-178] | 81 | 92 |
| Cc1cc(CN2C(=O)C(C(=O)NCC(=O)O)=C(O)CC2(C)C)ccc1F [Ex. 1-179] | 44 | 49 |
| Cc1cc(CN2C(=O)C(C(=O)NCC(=O)O)=C(O)CC2(C)C)ccc1Cl [Ex. 1-180] | 54 | 65 |
| O=C(O)CNC(=O)C1=C(O)CC(Cc2ccccc2)N(Cc2ccc(C(F)(F)F)cc2)C1=O (centres unmarked) [Ex. 1-181] | 73 | 83 |
| CCC1CC(O)=C(C(=O)NCC(=O)O)C(=O)N1Cc1ccc(C(F)(F)F)cc1 (centres unmarked) [Ex. 1-182] | 77 | 71 |
| CCC1(CC)CC(O)=C(C(=O)NCC(=O)O)C(=O)N1Cc1ccc(C(F)(F)F)cc1 [Ex. 1-183] | 39 | 50 |
| Cc1ccc(CN2C(=O)C(C(=O)NCC(=O)O)=C(O)CC2(C)C)cc1F [Ex. 1-184] | 59 | 60 |
| O=C(O)CNC(=O)C1=C(O)CC(CCc2ccccc2)N(Cc2ccc(C(F)(F)F)cc2)C1=O (centres unmarked) [Ex. 1-185] | 69 | 81 |
| CC1(C)CC(O)=C(C(=O)NCC(=O)O)C(=O)N1Cc1ccc(OCCCC(F)(F)F)cc1 [Ex. 1-186] | 64 | 77 |
| Cc1cc(CN2C(=O)C(C(=O)NCC(=O)O)=C(O)CC2(C)C)ccc1OCCCC(F)(F)F [Ex. 1-187] | 47 | 74 |
| CC1(C)CC(O)=C(C(=O)NCC(=O)O)C(=O)N1Cc1ccc(OC(CF)CF)c(Cl)c1 [Ex. 1-188] | 44 | 63 |
| Cc1cc(CN2C(=O)C(C(=O)NCC(=O)O)=C(O)CC2(C)C)ccc1OC(CF)CF [Ex. 1-189] | 53 | 60 |
| O=C(O)CNC(=O)C1=C(O)CCN(Cc2ccc(C(F)(F)F)c(C3CC3)c2)C1=O [Ex. 1-190] | 84 | 85 |
| COc1cc(CN2C(=O)C(C(=O)NCC(=O)O)=C(O)CC2(C)C)ccc1C(F)(F)F [Ex. 1-191] | 38 | 45 |
| CC1(C)CC(O)=C(C(=O)NCC(=O)O)C(=O)N1Cc1ccc(C(F)(F)F)c(OC(F)F)c1 [Ex. 1-192] | 48 | 49 |
| COc1ccc(CN2C(=O)C(C(=O)NCC(=O)O)=C(O)CC2(C)C)c(F)c1 [Ex. 1-193] | 67 | 57 |
| COc1ccc(CN2C(=O)C(C(=O)NCC(=O)O)=C(O)CC2(C)C)cc1F [Ex. 1-194] | 54 | 57 |
| COc1ccc(CN2C(=O)C(C(=O)NCC(=O)O)=C(O)CC2(C)C)cc1Cl [Ex. 1-195] | 52 | 57 |
| COc1ccc(CN2C(=O)C(C(=O)NCC(=O)O)=C(O)CC2(C)C)cc1C [Ex. 1-196] | 41 | 48 |
| CC(C)C1CN(Cc2ccc(C(F)(F)F)cc2)C(=O)C(C(=O)NCC(=O)O)=C1O (centres unmarked) [Ex. 1-197] | 66 | 78 |
